In patent publication US12202839B2, “In-flow photooxygenation of aminothienopyridinones generates PTP4A3 phosphatase inhibitors” (University of Virginia Patent Foundation, priority 2018, dated 2025):
“Also recorded” adds a separate entry of the source. One block for each compound: values may come before it.

Key:
[1] = target: Recombinant human PTP4A3 phosphatase (Homo sapiens (Human), UniProt O75365); assay: In vitro inhibition of PTP4A3 phosphatase activity (automated enzymatic assay); type: biochemical; conditions: mean of N independent assays, 10-point concentration curves, six replicates; read-out: IC50 (nM) ± SEM
[2] = test system: MDA-MB-231; assay: Loss of spheroid viability after 48-hour exposure, preexisting spheroids, CellTiterGlo 3D; type: cell-based; conditions: Homo sapiens, MDA-MB-231 spheroids, N=3, read-out: Cellular IC50 values for loss of spheroid viability after 48-hour exposure (μM ± S.E.M.)
[3] = test system: OVCAR4; assay: as above; type: cell-based; conditions: Homo sapiens, OVCAR-4, 48 h, N=3, read-out: Cellular IC50 values for loss of spheroid viability after 48-hour exposure (μM ± S.E.M.)
[4] = test system: Kuramochi; assay: as above; type: cell-based; conditions: Homo sapiens, N=3, read-out: Cellular IC50 values for loss of spheroid viability after 48-hour exposure (μM ± S.E.M.)
[5] = test system: Hs578T; assay: as above; type: cell-based; conditions: Homo sapiens, Hs-578T, N=3, read-out: Cellular IC50 values for loss of spheroid viability after 48-hour exposure (μM ± S.E.M.)
[6] = target: recombinant human His6-tagged PTP4A2 (Homo sapiens (Human), UniProt Q12974); assay: In vitro biochemical analysis of PTP4A inhibition, DiFMUP substrate; conditions: for IC50: DiFMUP 12 μM, 25° C., 25 minutes, read-out: IC50 values for Compounds Inhibiting Activity of PTP4A Family Members (mean (nM) ± S.E.M.), PTP4A2
[7] = target: recombinant human His6-tagged PTP4A3 (Homo sapiens (Human), UniProt O75365); assay: as above; conditions: for IC50: DiFMUP 12 μM, 25° C., 25 minutes, read-out: IC50 values for Compounds Inhibiting Activity of PTP4A Family Members (mean (nM) ± S.E.M.), PTP4A3; for preference among the PTP4A family members (PTP4A3 versus PTP4A1, PTP4A2), in words: comparison of the IC50 values of Table 4
[8] = target: recombinant human His6-tagged PTP4A1 (Homo sapiens (Human), UniProt Q93096); assay: as above; conditions: for IC50: DiFMUP 12 μM, 25° C., 25 minutes, read-out: IC50 values for Compounds Inhibiting Activity of PTP4A Family Members (mean (nM) ± S.E.M.), PTP4A1
[9] = test system: Kuramochi; assay: Spheroid growth viability, CellTiterGlo 3D; type: cell-based; conditions: 48 h, read-out: EC50 (mean μM ± SEM)
[10] = test system: Kasumi (human AML); assay: Leukemia/lymphoma cell viability, Alamar blue; type: cell-based; conditions: 48 h, read-out: EC50 (mean μM ± SEM)
[11] = test system: C1498 (mouse AML); assay: Leukemia/lymphoma cell viability, Alamar blue; type: cell-based; conditions: C1498, 48 h, read-out: EC50 (mean μM ± SEM)
[12] = test system: OVCAR4; assay: Monolayer cancer cell viability, Alamar blue; type: cell-based; conditions: Homo sapiens, OVCAR-4, 48 h, read-out: EC50 (mean μM ± SEM)
[13] = test system: COV362-47R; assay: Monolayer cancer cell viability, Alamar blue; type: cell-based; conditions: COV362-47R monolayer, 48-hour exposure, read-out: EC50 (mean μM ± SEM)
[14] = test system: COV362; assay: Monolayer cancer cell viability, Alamar blue; type: cell-based; conditions: 48-hour exposure, read-out: EC50 (mean μM ± SEM)
[15] = test system: V581; assay: Monolayer cancer cell viability, Alamar blue; type: cell-based; conditions: 48 h, read-out: EC50 (mean μM ± SEM)
[16] = test system: HL60 (human APML); assay: Leukemia/lymphoma cell viability, Alamar blue; type: cell-based; conditions: HL-60, 48 h, read-out: EC50 (mean μM ± SEM)
[17] = test system: HL60-VCR (drug resistant human APML); assay: Leukemia/lymphoma cell viability, Alamar blue; type: cell-based; conditions: HL60/VCR, 48 h, read-out: EC50 (mean μM ± SEM)
[18] = test system: OVCAR4; assay: Spheroid growth viability, CellTiterGlo 3D; type: cell-based; conditions: Homo sapiens, OVCAR-4, 48 h, read-out: EC50 (mean μM ± SEM)
[19] = test system: U937 (human Histiocytic lymphoma); assay: Leukemia/lymphoma cell viability, Alamar blue; type: cell-based; conditions: U-937, 48 h, read-out: EC50 (mean μM ± SEM)
[20] = test system: MOLT4 (human TALL); assay: Leukemia/lymphoma cell viability, Alamar blue; type: cell-based; conditions: MOLT-4, 48 h, read-out: EC50 (mean μM ± SEM)
[21] = test system: OVSAHO; assay: Spheroid growth viability, CellTiterGlo 3D; type: cell-based; conditions: Homo sapiens, 48 h, read-out: EC50 (mean μM ± SEM)
[22] = test system: K562 (human CML); assay: Leukemia/lymphoma cell viability, Alamar blue; type: cell-based; conditions: K562, 48 h, read-out: EC50 (mean μM ± SEM)
[23] = test system: Hs578T; assay: Monolayer cancer cell viability, Alamar blue; type: cell-based; conditions: Homo sapiens, Hs-578T, 48 h, read-out: EC50 (mean μM ± SEM)
[24] = test system: COV362-47R; assay: Spheroid growth viability, CellTiterGlo 3D; type: cell-based; conditions: COV362-47R spheroid, 48 hour exposure, read-out: EC50 (mean μM ± SEM)
[25] = test system: COV362; assay: Spheroid growth viability, CellTiterGlo 3D; type: cell-based; conditions: 48 hour exposure, read-out: EC50 (mean μM ± SEM)
[26] = test system: MV-4-11 (human AML/ALL); assay: Leukemia/lymphoma cell viability, Alamar blue; type: cell-based; conditions: MV4-11, 48 h, read-out: EC50 (mean μM ± SEM)
[27] = test system: OVSAHO; assay: Monolayer cancer cell viability, Alamar blue; type: cell-based; conditions: Homo sapiens, OVSAHO, 48 h, read-out: EC50 (mean μM ± SEM)
[28] = test system: RS4;11 (human BALL); assay: Leukemia/lymphoma cell viability, Alamar blue; type: cell-based; conditions: RS4-11, 48 h, read-out: EC50 (mean μM ± SEM)
[29] = test system: V581; assay: Spheroid growth viability, CellTiterGlo 3D; type: cell-based; conditions: 48 h, read-out: EC50 (mean μM ± SEM)

Chain of recombinant human His6-tagged PTP4A3 (O75365 whole entry): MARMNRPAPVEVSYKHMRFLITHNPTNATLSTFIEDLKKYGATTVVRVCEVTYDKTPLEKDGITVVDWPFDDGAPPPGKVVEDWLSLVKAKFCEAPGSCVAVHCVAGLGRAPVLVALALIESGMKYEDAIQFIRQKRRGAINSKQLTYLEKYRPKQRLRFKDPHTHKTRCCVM
Chain of Recombinant human PTP4A3 phosphatase (O75365 whole entry): as above
Chain of recombinant human His6-tagged PTP4A1 (Q93096 whole entry): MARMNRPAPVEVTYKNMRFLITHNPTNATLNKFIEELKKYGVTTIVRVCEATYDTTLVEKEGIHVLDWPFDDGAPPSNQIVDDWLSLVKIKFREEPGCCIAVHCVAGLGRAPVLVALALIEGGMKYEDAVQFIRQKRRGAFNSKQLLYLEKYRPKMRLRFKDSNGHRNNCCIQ
Chain of recombinant human His6-tagged PTP4A2 (Q12974 whole entry): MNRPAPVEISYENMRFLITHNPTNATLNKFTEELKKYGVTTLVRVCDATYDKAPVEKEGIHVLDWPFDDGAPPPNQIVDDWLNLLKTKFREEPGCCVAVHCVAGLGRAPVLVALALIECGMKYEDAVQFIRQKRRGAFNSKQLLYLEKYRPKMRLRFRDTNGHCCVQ

IC50 [1]: 71 ± 2.54 nM
Structure (SMILES): N=C1C(=O)NC(=O)c2cc(-c3ccc(F)cc3)sc21 [Compound 9d, 2-(4-Fluorophenyl)-7-iminothieno[3,2-c]pyridine-4,6(5H,7H)-dione]

IC50 [1]: 85.7 ± 5.96 nM
Structure (SMILES): N=C1C(=O)N(CC2CC2)C(=O)c2cc(-c3ccccc3)sc21 [Compound 9q, 5-(Cyclopropylmethyl)-7-imino-2-phenylthieno[3,2-c]pyridine-4,6(5H,7H)-dione]

IC50 [1]: 256 ± 12.3 nM
Structure (SMILES): CC(C)(C)C(=O)Oc1ccc(-c2cc3c(s2)C(=N)C(=O)NC3=O)cc1 [Compound 9e, 4-(7-Imino-4,6-dioxo-4,5,6,7-tetrahydrothieno[3,2-c]pyridin-2-yl)phenyl pivalate]

IC50 [2]: > 50 µM
IC50 [3]: > 50 µM
IC50 [6]: > 1000 nM
inhibition of PTP4A2 (in words) ([6]; DiFMUP, 25-minute incubation): inactive
IC50 [7]: > 1000 nM
IC50 [8]: > 1000 nM
inhibition of PTP4A1 (in words) ([8]; DiFMUP, 25-minute incubation): inactive
Structure (SMILES): O=c1[nH]c(=O)c2cc(-c3ccccc3)sc2[nH]1 [JMS-038, 6-phenylthieno[2,3-d]pyrimidine-2,4(1H,3H)-dione, reference compound]
IC50 [4]: > 50 µM
IC50 [5]: > 50 µM
inhibition of PTP4A3 (in words) ([7]; DiFMUP, 25-minute incubation): failed to inhibit; also recorded: inactive

IC50 [1]: 32.2 ± 3.52 nM
Structure (SMILES): CN1C(=O)C(=O)c2sc(-c3ccccc3)cc2C1=O [NRT-892-04]

IC50 [2]: > 50 µM
IC50 [3]: 19.6 ± 4.66 µM
IC50 [1]: 98.2 ± 2.49 nM
IC50 [6]: 73.9 ± 10 nM
IC50 [7]: 98.2 nM
preference among the PTP4A family members (PTP4A3 versus PTP4A1, PTP4A2), in words [7]: little preference
IC50 [8]: 43.2 ± 8.5 nM
Structure (SMILES): N=C1C(=O)NC(=O)c2cc(-c3ccc(OCCN4CCOCC4)cc3)sc21 [Compound 9o, 7-Imino-2-(4-(2-morpholinoethoxy)phenyl)thieno[3,2-c]pyridine-4,6(5H, 7H)-dione]
IC50 [4]: > 50 µM
IC50 [5]: 12 ± 3.84 µM

IC50 [1]: 53.4 ± 1.46 nM
Structure (SMILES): Cc1cccc(-c2cc3c(s2)C(=N)C(=O)NC3=O)c1 [Compound 9i, 7-Imino-2-(m-tolyl)thieno[3,2-c]pyridine-4,6(5H,7H)-dione]

Structure (SMILES): N=C1C(=O)NC(=O)c2cc(-c3ccccc3)sc21 [Compound 2, 7-Imino-2-phenylthieno[3,2-c]pyridine-4,6(5H,7H)-dione, reference compound]
IC50 [2]: 32.7 ± 7.02 µM
IC50 [3]: 4.42 µM
IC50 [4]: 13.2 ± 0.65 µM
IC50 [5]: 8.48 ± 2.38 µM

IC50 [1]: 53.4 ± 1.46 nM
Structure (SMILES): N=C1C(=O)NC(=O)c2cc(-c3ccccc3F)sc21 [Compound 9l, 2-(2-Fluorophenyl)-7-iminothieno[3,2-c]pyridine-4,6(5H,7H)-dione]

Structure (SMILES): N=C1C(=O)NC(=O)c2cc(-c3ccc(OCCCCNC(=O)CC45CC6CC(CC(C6)C4)C5)cc3)sc21 [EJR-876-35]
EC50 [9]: > 50 µM
EC50 [10]: 4.3 ± 1.3 µM
EC50 [11]: 1.2 ± 0.2 µM
EC50 [12]: 15.5 ± 4.7 µM
EC50 [13]: 25.2 ± 6.2 µM
EC50 [14]: 25.7 ± 5.3 µM
EC50 [15]: > 50 µM
EC50 [16]: 1.6 ± 0.2 µM
EC50 [17]: 17.7 ± 3.8 µM
EC50 [18]: 16.7 ± 1.9 µM
EC50 [19]: 6.87 ± 0.4 µM
EC50 [20]: 1 ± 0.1 µM
EC50 [21]: 21.1 ± 2.8 µM
EC50 [22]: 25.6 ± 2.8 µM
EC50 [23]: 6.2 µM
EC50 [24]: > 50 µM
EC50 [25]: 16 ± 3.7 µM
EC50 [26]: 4.5 ± 1.8 µM
EC50 [27]: 18.8 ± 2.2 µM
EC50 [28]: 2.2 ± 0.4 µM
EC50 [29]: 44.4 µM

IC50 [1]: 47.6 ± 2.68 nM
Structure (SMILES): COc1cccc(-c2cc3c(s2)C(=N)C(=O)NC3=O)c1 [Compound 9j, 2-(3-Methoxyphenyl)-7-iminothieno[3,2-c]pyridine-4,6(5H,7H)-dione]

IC50 [2]: 61.5 ± 9.66 µM
IC50 [3]: 11.5 ± 2.38 µM
IC50 [1]: 48.9 ± 12 nM
IC50 [7]: 86 nM
preference among the PTP4A family members (PTP4A3 versus PTP4A1, PTP4A2), in words [7]: more pronounced preference for PTP4A3
IC50 [8]: 133 ± 31.7 nM
Structure (SMILES): CN1C(=O)C(=N)c2sc(-c3ccccc3)cc2C1=O [Compound 9p, 7-Imino-5-methyl-2-phenylthieno[3,2-c]pyridine-4,6(5H,7H)-dione]
IC50 [4]: 34.1 ± 8.6 µM
IC50 [5]: 10.1 ± 1.93 µM

IC50 [1]: 193 ± 6.06 nM
Structure (SMILES): N=C1C(=O)NC(=O)c2cc(-c3cccc(C(F)(F)F)c3)sc21 [Compound 9g, 7-Imino-2-(3-(trifluoromethyl)phenyl)thieno[3,2-c]pyridine-4,6(5H,7H)-dione]

IC50 [1]: 65.7 ± 4.13 nM
Structure (SMILES): N=C1C(=O)NC(=O)c2cc(-c3cccc(Cl)c3)sc21 [Compound 9h, 2-(3-Chlorophenyl)-7-iminothieno[3,2-c]pyridine-4,6(5H,7H)-dione]

IC50 [1]: 41.9 ± 1.15 nM
Structure (SMILES): N=C1C(=O)NC(=O)c2cc(-c3ccc(Cl)cc3)sc21 [Compound 9b, 2-(4-Chlorophenyl)-7-iminothieno[3,2-c]pyridine-4,6(5H,7H)-dione]

IC50 [1]: 67.7 ± 3 nM
Structure (SMILES): N=C1C(=O)NC(=O)c2cc(-c3ccc(F)c(Cl)c3)sc21 [Compound 9n, 2-(3-Chloro-4-fluorophenyl)-7-iminothieno[3,2-c]pyridine-4,6(5H,7H)-dione]

IC50 [2]: > 50 µM
IC50 [3]: 12.3 ± 2.26 µM
IC50 [1]: 36.1 ± 1.43 nM
IC50 [7]: 36.1 nM
preference among the PTP4A family members (PTP4A3 versus PTP4A1, PTP4A2), in words [7]: more pronounced preference for PTP4A3
IC50 [8]: 49 ± 5 nM
Structure (SMILES): N=C1C(=O)NC(=O)c2cc(-c3ccccc3Cl)sc21 [Compound 9k, 2-(2-Chlorophenyl)-7-iminothieno[3,2-c]pyridine-4,6(5H,7H)-dione]
IC50 [4]: > 50 µM
IC50 [5]: 14.4 ± 4.91 µM
